The numbers were not newly measured in patent publication US9029390B2, “Oral composition containing an antiplatelet agent of the thienopyridine family in the form of free base” (CLL Pharma, priority 2008, dated 2015), which cites them from elsewhere.

The conditions of data set [1]: patients who received clopidogrel, study CAPRIE.

On to `COC(=O)[C@H](c1ccccc1Cl)N1CCc2sccc2C1` [clopidogrel free base, clopidogrel], for which the solubility in water result is reported as “almost null”.
As for `COC(=O)[C@H](c1ccccc1Cl)N1CCc2sccc2C1` [clopidogrel], in data set [1], the “frequency of gastro-intestinal bleedings” value is 2.0% and the “gastro-intestinal bleedings having required a hospitalization” value was 0.7%.
